From US4788063A, “Drug delivery system” (priority 1984, dated 1988)

What was measured:
memory disorders = details: SDAT patients, intravenous infusion at a rate of 3.4-14 μg/kg. hr; cited from earlier work
[1] = test system: Whole blood cholinesterase; experiment: whole blood cholinesterase after dermal application or injection in guinea pigs; assay type: in vivo; details: injection, guinea pigs (FIG. 2)
Method: (§1) Laboratory animal species used throughout this study consisted of albino guinea pigs of either sex of a local strain, (Dunkin-Hadley origin), weighing between 300-400 g, and female pigs of the large White and Lundrace strain, 8-12 weeks of age, weighing 8-14 kg.
(§2) At 30 minutes prior to dermal application of test solutions, the hair at the test sites was closely clipped. Only animals in which the skin at the test sites appeared grossly normal and was free of bites, scratches or bruises, were selected for the study.
(§3) Treatment solutions for dermal application were freshly prepared and applied to a pre-determined area of a commercially available pad, (micropad dressing 3M No. 1610, U.S. Pat. No. 3,285,245) which in turn was secured to dorsal test-sites by an adhesive bandage, serving at the same time as an occlusive dressing. […] Intervals between bleedings were 2 hours in guinea pigs, and 30 minutes in pigs.
(§4) Cholinesterase Determinations: Whole blood cholinesterase activity was determined by the method of Ellman [G.L. Ellman et al, Biochem. Pharmacol. 7, 83 (1961)], or by that described by Johnson and Russell [C.D. Johnson and R. L. Russell, Anal Biochem 64, 229 (1975)]. Data obtained in experimental animals (guinea pigs and pigs) show a remarkable prolonging of the duration of action of the dermally applied drug when compared with systemic administration.

[2] = test system: Whole blood cholinesterase; experiment: whole blood cholinesterase after dermal application or intramuscular injection in pigs; assay type: in vivo; details: intramuscular injection, pigs (FIG. 1)
Method: as §1, §2, §3, §4

CNC(=O)Oc1ccc2c(c1)[C@]1(C)CCN(C)[C@@H]1N2C [physostigmine]
effect on memory disorders (memory disorders): improvement in memory disorders | duration of the effect [1]: 2 to 3 h | duration of the effect [2]: 2 to 3 h
